Test results from US20250171432A1, “COMPOUNDS AND METHODS OF USE” (Tango Therapeutics, Inc., priority 2022, published 2025).
Each block holds one molecule with its values, some of them ahead of it.

Tests used:
Type in all cases: cell-based
[1] = tested on: SDMA (PRMT5 activity) in HAP1 MTAP-intact cell line; test: SDMA in-cell western assay, HAP1 MTAP-intact; details: SDMA in-cell western, HAP1 MTAP-intact cells, 24 hours compound incubation
[2] = tested on: SDMA (PRMT5 activity) in HAP1 MTAP-deleted cell line; test: SDMA in-cell western assay, HAP1 MTAP-deleted; details: for IC50 / IC90: SDMA in-cell western, HAP1 MTAP-deleted cells, 24 hours compound incubation; for Hap1 MTAP intact/deleted ratio: ratio of SDMA IC50 in HAP1 MTAP-intact to HAP1 MTAP-deleted cell line
[3] = tested on: HAP1 MTAP-deleted cell line; test: Viability assay (CellTiter-Glo), HAP1 MTAP-deleted; details: HAP1 MTAP-deleted cells, 7 days
Method in brief: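 HAP1 MTAP-deleted and MTAP-intact cells seeded, then dosed next day (n=3, 0.2% DMSO) and grown 7 days. Viability by CellTiter-Glo luminescence, expressed as % of DMSO control per cell line.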

SMILES: CCc1cc(NC(=O)C(=O)N2C[C@@H](C)CC[C@@H]2c2ccc3cn(C4CCN(C)C(C)(C)C4)nc3c2)cnc1N (single isomer, unassigned) [Compound 48]
- IC50 ([1]; Homo sapiens, HAP1, 24 h): 5 to 50 nM
- IC50 ([2]; Homo sapiens): < 5 nM
- IC90 ([2]; Homo sapiens): < 75 nM
- Hap1 MTAP intact/deleted ratio [2]: C (“C” indicates an IC50 ratio of less than 15 fold)
- IC50 ([3]; Homo sapiens, 168 h): < 100 nM

SMILES: CCc1cc(NC(=O)C(=O)N2C[C@@H](C)CC[C@@H]2c2ccc3sc([C@@H]4CN(C)C(C)(C)C4)nc3c2)cnc1N (single isomer, unassigned) [Compound 56]
- IC50 ([1]; Homo sapiens, HAP1, 24 h): 5 to 50 nM
- IC50 ([2]; Homo sapiens): < 5 nM
- IC90 ([2]; Homo sapiens): < 75 nM
- Hap1 MTAP intact/deleted ratio [2]: B (“B” indicates an IC50 ratio greater than or equal to 15 fold but lower than 30 fold)
- IC50 ([3]; Homo sapiens, 168 h): < 100 nM

SMILES: CCc1cc(NC(=O)C(=O)N2C[C@@H](C)CC[C@@H]2c2ccc3sc([C@H]4C[C@H](C)CN(C)C4)nc3c2)cnc1N (single isomer, unassigned) [Compound 75]
- IC50 ([1]; Homo sapiens, HAP1, 24 h): > 50 nM
- IC50 ([2]; Homo sapiens): 5 to 50 nM
- IC90 ([2]; Homo sapiens): < 75 nM
- Hap1 MTAP intact/deleted ratio [2]: B (“B” indicates an IC50 ratio greater than or equal to 15 fold but lower than 30 fold)
- IC50 ([3]; Homo sapiens, 168 h): < 100 nM

SMILES: CCc1cc(NC(=O)C(=O)N2C[C@@H](C)CC[C@@H]2c2ccc3cn(C4CN(C)CC(C)(C)C4)nc3c2)cnc1N (single isomer, unassigned) [Compound 78]
- IC50 [1]: > 50 nM
- IC50 ([2]; Homo sapiens): < 5 nM
- IC90 ([2]; Homo sapiens): < 75 nM
- Hap1 MTAP intact/deleted ratio [2]: B (“B” indicates an IC50 ratio greater than or equal to 15 fold but lower than 30 fold)
- IC50 ([3]; Homo sapiens, 168 h): < 100 nM

SMILES: CCc1cc(NC(=O)C(=O)N2C[C@@H](C)CC[C@@H]2c2ccc3cn(C4CCCN(C)C4)nc3c2)cnc1N (single isomer, unassigned) [Compound 80]
- IC50 ([1]; Homo sapiens, HAP1, 24 h): 5 to 50 nM
- IC50 ([2]; Homo sapiens): < 5 nM
- IC90 ([2]; Homo sapiens): < 75 nM
- Hap1 MTAP intact/deleted ratio [2]: C (“C” indicates an IC50 ratio of less than 15 fold)
- IC50 ([3]; Homo sapiens, 168 h): < 100 nM

SMILES: CCc1cc(NC(=O)C(=O)N2C[C@@H](C)CC[C@@H]2c2ccc3sc([C@@H]4CN(C)CC(C)(C)C4)nc3c2)cnc1N (single isomer, unassigned) [Compound 105]
- IC50 ([1]; Homo sapiens, HAP1, 24 h): > 50 nM
- IC50 ([2]; Homo sapiens): < 5 nM
- IC90 ([2]; Homo sapiens): < 75 nM
- Hap1 MTAP intact/deleted ratio [2]: A (“A” indicates an IC50 ratio greater than or equal to 30 fold)
- IC50 ([3]; Homo sapiens, 168 h): < 100 nM

SMILES: CCc1cc(NC(=O)C(=O)N2C[C@@H](C)CC[C@@H]2c2ccc3sc(C(C)CN4CCCC4)nc3c2)cnc1N (single isomer, unassigned) [Compound 106]
- IC50 [1]: 5 to 50 nM
- IC50 [2]: < 5 nM
- IC90 [2]: < 75 nM
- Hap1 MTAP intact/deleted ratio [2]: B (“B” indicates an IC50 ratio greater than or equal to 15 fold but lower than 30 fold)
- IC50 [3]: < 100 nM

SMILES: CCc1cc(NC(=O)C(=O)N2C[C@@H](C)CC[C@@H]2c2ccc3sc([C@@H]4C[C@@H]5CN(C)C[C@@H]5C4)nc3c2)cnc1N (single isomer, unassigned) [Compound 111]
- IC50 ([1]; Homo sapiens, HAP1, 24 h): > 50 nM
- IC50 ([2]; Homo sapiens): < 5 nM
- IC90 ([2]; Homo sapiens): < 75 nM
- Hap1 MTAP intact/deleted ratio [2]: B (“B” indicates an IC50 ratio greater than or equal to 15 fold but lower than 30 fold)
- IC50 ([3]; Homo sapiens, 168 h): < 100 nM

SMILES: CCc1cc(NC(=O)C(=O)N2C[C@@H](C)CC[C@@H]2c2ccc3cn(C4CN(C)CC(C)(C)C4)nc3c2)cnc1N (single isomer, unassigned) [Compound 114]
- IC50 [1]: 5 to 50 nM
- IC50 [2]: < 5 nM
- IC90 [2]: < 75 nM
- Hap1 MTAP intact/deleted ratio [2]: B (“B” indicates an IC50 ratio greater than or equal to 15 fold but lower than 30 fold)
- IC50 [3]: < 100 nM

SMILES: CCc1cc(NC(=O)C(=O)N2C[C@@H](C)CC[C@@H]2c2ccc3cn(C4CCN(C)C(C)(C)C4)nc3c2)cnc1N (single isomer, unassigned) [Compound 115]
- IC50 [1]: 5 to 50 nM
- IC50 [2]: < 5 nM
- IC90 [2]: < 75 nM
- IC50 [3]: < 100 nM

SMILES: CCc1cc(NC(=O)C(=O)N2C[C@@H](C)CC[C@@H]2c2cccc(OCC3CCCN3C)c2)cnc1N (single isomer, unassigned) [Compound 121]
- IC50 ([1]; Homo sapiens, HAP1, 24 h): > 50 nM
- IC50 ([2]; Homo sapiens): 5 to 50 nM
- IC90 ([2]; Homo sapiens): < 75 nM
- Hap1 MTAP intact/deleted ratio [2]: B (“B” indicates an IC50 ratio greater than or equal to 15 fold but lower than 30 fold)
- IC50 ([3]; Homo sapiens, 168 h): < 100 nM

SMILES: CCc1cc(NC(=O)C(=O)N2C[C@@H](C)CC[C@@H]2c2ccc3sc(CC4(C)CCN(C)CC4)nc3c2)cnc1N [Compound 6, N-(6-amino-5-ethylpyridin-3-yl)-2-((2R,5S)-2-(2-((1,4-dimethylpiperidin-4-yl)methyl)benzo[d]thiazol-5-yl)-5-methylpiperidin-1-yl)-2-oxoacetamide]
- IC50 ([1]; Homo sapiens, HAP1, 24 h): 5 to 50 nM
- IC50 ([2]; Homo sapiens): < 5 nM
- IC90 ([2]; Homo sapiens): < 75 nM
- Hap1 MTAP intact/deleted ratio [2]: B (“B” indicates an IC50 ratio greater than or equal to 15 fold but lower than 30 fold)
- IC50 ([3]; Homo sapiens, 168 h): < 100 nM

Continued, in another order:

- IC50 ([1]; Homo sapiens, HAP1, 24 h): > 50 nM
- IC50 ([2]; Homo sapiens): < 5 nM
- IC90 ([2]; Homo sapiens): < 75 nM
SMILES: COc1ncc(NC(=O)C(=O)N2C[C@@H](C)CC[C@@H]2c2ccc3sc([C@H]4C[C@H](N(C)C)C4)nc3c2)cc1C(N)=O (single isomer, unassigned) [Compound 50]
- Hap1 MTAP intact/deleted ratio [2]: A (“A” indicates an IC50 ratio greater than or equal to 30 fold)
- IC50 ([3]; Homo sapiens, 168 h): < 100 nM

- IC50 ([1]; Homo sapiens, HAP1, 24 h): > 50 nM
- IC50 ([2]; Homo sapiens): < 5 nM
- IC90 ([2]; Homo sapiens): < 75 nM
SMILES: COc1ncc(NC(=O)C(=O)N2C[C@@H](C)CC[C@@H]2c2ccc3sc([C@H]4C[C@@H]5CN(C)C[C@@H]5C4)nc3c2)cc1C(N)=O (single isomer, unassigned) [Compound 67]
- Hap1 MTAP intact/deleted ratio [2]: A (“A” indicates an IC50 ratio greater than or equal to 30 fold)
- IC50 ([3]; Homo sapiens, 168 h): < 100 nM

- IC50 ([1]; Homo sapiens, HAP1, 24 h): > 50 nM
- IC50 ([2]; Homo sapiens): < 5 nM
- IC90 ([2]; Homo sapiens): < 75 nM
SMILES: COc1ncc(NC(=O)C(=O)N2C[C@@H](C)CC[C@@H]2c2ccc3sc([C@@H]4CCN(C)C[C@H]4OC)nc3c2)cc1C(N)=O (single isomer, unassigned) [Compound 68]
- Hap1 MTAP intact/deleted ratio [2]: A (“A” indicates an IC50 ratio greater than or equal to 30 fold)
- IC50 ([3]; Homo sapiens, 168 h): < 100 nM

- IC50 ([1]; Homo sapiens, HAP1, 24 h): 5 to 50 nM
- IC50 ([2]; Homo sapiens): < 5 nM
- IC90 ([2]; Homo sapiens): < 75 nM
SMILES: COc1ncc(NC(=O)C(=O)N2C[C@@H](C)CC[C@@H]2c2ccc3sc([C@@H]4CN(C)CC4(C)C)nc3c2)cc1C(N)=O (single isomer, unassigned) [Compound 74]
- Hap1 MTAP intact/deleted ratio [2]: B (“B” indicates an IC50 ratio greater than or equal to 15 fold but lower than 30 fold)
- IC50 ([3]; Homo sapiens, 168 h): < 100 nM

- IC50 ([1]; Homo sapiens, HAP1, 24 h): > 50 nM
- IC50 ([2]; Homo sapiens): < 5 nM
- IC90 ([2]; Homo sapiens): < 75 nM
SMILES: COc1ncc(NC(=O)C(=O)N2C[C@@H](C)CC[C@@H]2c2ccc3sc([C@@H]4C[C@@H]5CN(C)C[C@@H]5C4)nc3c2)cc1C(N)=O (single isomer, unassigned) [Compound 82]
- Hap1 MTAP intact/deleted ratio [2]: A (“A” indicates an IC50 ratio greater than or equal to 30 fold)
- IC50 ([3]; Homo sapiens, 168 h): < 100 nM

- IC50 ([1]; Homo sapiens, HAP1, 24 h): > 50 nM
- IC50 ([2]; Homo sapiens): < 5 nM
- IC90 ([2]; Homo sapiens): < 75 nM
SMILES: CCc1cc(NC(=O)C(=O)N2C[C@@H](C)CC[C@@H]2c2ccc3sc([C@H]4CCN(C)C[C@@H]4OC)nc3c2)cnc1N (single isomer, unassigned) [Compound 90]
- Hap1 MTAP intact/deleted ratio [2]: A (“A” indicates an IC50 ratio greater than or equal to 30 fold)
- IC50 ([3]; Homo sapiens, 168 h): < 100 nM

- IC50 ([1]; Homo sapiens, HAP1, 24 h): 5 to 50 nM
- IC50 ([2]; Homo sapiens): < 5 nM
- IC90 ([2]; Homo sapiens): < 75 nM
SMILES: CCc1cc(NC(=O)C(=O)N2C[C@@H](C)CC[C@@H]2c2ccc3sc([C@@H]4CCN(C)C[C@H]4OC)nc3c2)cnc1N (single isomer, unassigned) [Compound 101]
- Hap1 MTAP intact/deleted ratio [2]: B (“B” indicates an IC50 ratio greater than or equal to 15 fold but lower than 30 fold)
- IC50 ([3]; Homo sapiens, 168 h): < 100 nM
